The results in this text go back to US20240139162A1, “Benzophenanthridine Alkaloids and Their Methods of Use” (Chengdu Anticancer Bioscience, LTD., priority 2019, published 2024).

By IC50 is commonly meant the concentration that inhibits the measured activity by half.

One assay relates to cells. Briefly: Progression through mitosis by time-lapse microscopy. The class given is cell-based. From the text: Time lapse microscopy was used to compare progression through mitosis for cells treated with acetylcorynoline and the DMSO control group, beginning at prophase.
The next assay relates to Rat1A cells. Briefly: IC50 in Rat1A cells (Table 2). Format: cell-based. The note with it: 72 h, Rat1A, treatment 72 h; read-out: IC50. On the procedure:
(§1) Cells were split, plated in appropriate culture media and allowed to adhere. After 18 hours, corynoline and acetylcorynoline were added to a cell line selected from below. At 72 h or 96 h, MTT was added and at 75 h or 99 h, the A570 nm was recorded. The concentration ranged from 0.02 μM to 40 μM.
(§2) The following Rat1A cell lines were used in these studies: Rat1 A C, Rat1A MYC, Rat1A E2F1, and Rat1A E2F3. The cell line was then engineered as control (C), to overexpress the MYC oncogene (Rat1A-MYC), to overexpress the E2F1 oncogene (Rat1A-E2F1), or to overexpress the E2F3 oncogene (Rat1A-E2F3).
(§3) The effect of the compounds chelidonine and protopine on cell division was assessed similarly to corynoline and acetylcorynoline above. As described in Example 6 above, as cells enter and become arrested in mitosis, they detach from the plate surface and appear as rounded cells with a smooth surface membrane. RPE-MBC cells (ectopically expressing oncogenes MYC and Bcl2) were treated with DMSO, chelidonine and protopine, and compared against controls Michael's ketone (MK) and taxol.

A further assay concerns RPE-A19 cells. Nature of the assay: IC50 in RPE-A19 cells (Table 2). The class given is cell-based, human. The note with it: Homo sapiens, 72 h, RPE-A19, treatment 72 h; read-out: IC50. On the procedure:
as §1, §3

For assay [1], the system named is all tested cell lines (RPE, Rat1A and human cancer cell lines). Nature of the assay: MTT assay, IC50 across all of the cell lines tested. The class given is cell-based.
A further assay relates to aurora-B kinase. Nature of the assay: Phosphorylation of Histone 3 at Ser10 as surrogate of aurora-B kinase activity. The class given is cell-based. On the procedure:
Cells were cultured on coverslips in a 6-well plate, fixed with 4% paraformaldehyde and then permeabilized with 0.3% Triton X-100 in PBS. Primary antibody was detected with Texas-Red-conjugated secondary antibodies that were purchased from Jackson ImmunoResearch. After immunostaining, cells were mounted on microscope slides with 4′,6′-diamidino-2-phenylindole (DAPI)-containing Vectashield mounting solution (Vector Laboratories) for detection of fluorescence with an EVOS FL fluorescence microscope (ThermoFisher).

In another assay the test system is RPE-MBC cells. Nature of the assay: IC50 in RPE-MBC cells (Table 1). Format: cell-based, human. The note with it: Homo sapiens; RPE-MBC, treatment 72 h; read-out: IC50. The procedure: Retinal pigment epithelial cells transformed by ectopic MYC and Bcl-2 expression (RPE-MBC cells) have been described previously (e.g., Goga et al., 2007, Nat. Med., 13 (7):820-827) and were cultured in DMEM supplemented with 5% fetal bovine serum in a humidified incubator that was maintained at 5% CO2. For screening for bioactive fractions, cells were cultured in 96-well plates, and exposed to crude extracts, partially purified fractions or pure compounds at the concentrations indicated in the figure legends. Exposure was for 24 or 48 hours before analysis of cells for either an arrest in mitosis using an inverted microscope or for a change in DNA content after 4′,6′-diamidino-2-phenylindole (DAPI) staining by fluorescence microscopy.
The RPE series were derived from human retinal pigment epithelium and then stably transfected with a hTERT expression construct for immortalization. The resulting cell line was then engineered to overexpress the MYC and BCL2 oncogenes, generating the RPE MBC cell line. This cell line mimics cancer cells that overexpress MYC and Bcl2, and readily forms viable polyploid cells when cytokinesis is prevented.
as §1, §3

Assay [2] relates to Rat1A cell lines (Rat1A C, Rat1A MYC, Rat1A E2F1, Rat1A E2F3). Briefly: MTT assay, Rat1A cell lines expressing oncogenes. The class given is cell-based. The settings on record: Rat1A cell lines compared to Rat1A C (FIG. 12). On the procedure:
as §1, §2
For orientation: Tetrazolium dyes change colour on reduction, which living cells bring about.

A further assay has as its system human cancer cell lines. Briefly: MTT assay, human cancer cell lines. Format: cell-based. The note with it: with the exception of T98G (FIG. 13). The procedure: Cells were split, plated in appropriate culture media and allowed to adhere. After 18 hours, corynoline and acetylcorynoline were added to a cell line selected from below. At 72 h or 96 h, MTT was added and at 75 h or 99 h, the A570 nm was recorded. The concentration ranged from 0.02 μM to 40 μM. Taxol was used as a positive control, which has a known IC50 value of less than 0.02 μM in all tested cell lines.
The following human cancer cell lines, representing a breadth of cancer subtypes, were used in these studies: Hela, C32, NCI-H23, HCT116 p53-/-, HCT116 wild type, MDA-MB-175IV, MDA-MB-231, MDA-MB-435, MCF-7, A431, H460, TUWI, CaoV-3, T98G, and HTB135.

The subject of assay [3] is RPE cell lines (RPE NEO, RPE MBH, RPE MBC, RPE MA, RPE MP, RPE MI, RPE MYC Nick). Briefly: MTT assay, RPE cell lines expressing oncogenes. Format: cell-based, human. The note with it: RPE cell lines compared with RPE NEO control (FIG. 11).
Another assay relates to IMR 90 cells. Briefly: IC50 in IMR 90 cells (Table 2). The note with it: Homo sapiens, IMR-90, 72 h, IMR 90, treatment 72 h; read-out: IC50. Format: cell-based. On the procedure: as §1, §3
For the next assay, the system named is RPE MBC cells. Nature of the assay: Mitotic kinetochore analysis with CREST antibody. The class given is cell-based, human. The procedure: Following treatment with acetylcorynoline, RPE MBC cells were prepared for immunofluorescence analysis with CREST serum (staining shown in FIG. 6 and FIG. 7 in red).
A further assay relates to RPE-MBH cells. Nature of the assay: IC50 in RPE-MBH cells (Table 1). The class given is cell-based, human. The settings on record: Homo sapiens, 72 h, RPE-MBH, treatment 72 h; read-out: IC50. The procedure:
as §1
The following RPE cell lines were used in these studies: RPE NEO, RPE MBH, RPE MBC, RPE MA, RPE MP, RPE MI, and RPE MYC Nick. This RPE series were derived from human retinal pigment epithelium and then stably transfected with an hTERT expression construct for immortalization. The resulting cell line was then engineered to overexpress the MYC oncogene (RPE-MYC) or a Neomycin selection marker gene (RPE-NEO). In RPE-MYC cells, a variety of other oncogenes such as Myr-AKT, BCL2, ID1 and PI3K^E45k were further introduced individually to generate the cell lines RPE MA, RPE MBC, RPE MI, RPE MP, respectively. As a control, H2BGFP was introduced into RPE-MYC cells to generate RPE MBH.
as §3

Each structure is given as a SMILES string. Read-outs that look alike come from different tables or passages of the source.

`CC(=O)O[C@H]1Cc2cc3c(cc2[C@H]2N(C)Cc4c(ccc5c4OCO5)[C@@]12C)OCO3` [Acetylcorynoline, (5bR,6S,12bR)-5b,6,7,12b,13,14-Hexahydro-5b,13-dimethyl-[1,3]benzodioxolo[5,6-c]-1,3-dioxolo[4,5-i]phenanthridin-6-ol 6-acetate]: the cytofission entry in the assay on cells (time lapse) is “prevented cytofission”. Moreover, the initiation of cytokinesis entry with cells (time lapse) is “does not affect the initiation of cytokinesis”. In addition, the “time spent in early mitosis compared to a control cell” value in the assay on cells (time lapse beginning at prophase) is “three-times longer”. Besides, the IC50 in the assay on Rat1A cells is 27.4 µM; in the assay with RPE-A19 cells it was 35.2 µM; in [1] (Homo sapiens, across all of the cell lines tested (FIG. 9), MTT at 72 h or 96 h, read-out: IC50), 1 to 31 µM; in [1] (oncogene-expressing RPE cell lines and human cell lines (FIG. 2, FIG. 3), read-out: IC50, majority of values), 1 to 31 µM; in the assay with RPE-MBC cells, 9.94 µM; in the assay with IMR 90 cells, more than 40 µM. In addition, the IC50 in the assay on RPE-MBH cells stood at 12.6 µM. The “phosphorylation of Histone 3 at Ser10” value in the assay on aurora-B kinase is recorded as “not affected”. In assay [2], the “change of IC50 after overexpression of oncogenes” value is listed as “all declined when compared to Rat1 A C”. Besides, in the assay on human cancer cell lines, the “IC50 compared with the other compound” value is “higher than those for corynoline”. Also, the “change of IC50 after overexpression of oncogenic factors” value in assay [3] is recorded as “all declined compared with the RPE NEO control, with the exception of the RPE MA cell line”. Also, in the assay on RPE MBC cells, the “kinetochore arrangement (CREST staining)” value is recorded as “kinetochore arrangement was disturbed”.
